The target in assay [1] is T1, proMMP9(20-445;ΔFnII) (SEQ ID NO:6) (Homo sapiens, UniProt P14780, DEL216-390).
T1 construct: start methionine (N); made in house; host or cells: E. coli BL21(DE3) RIL
T1 sequence (P14780 with tags, fused parts or gaps DEL216-390): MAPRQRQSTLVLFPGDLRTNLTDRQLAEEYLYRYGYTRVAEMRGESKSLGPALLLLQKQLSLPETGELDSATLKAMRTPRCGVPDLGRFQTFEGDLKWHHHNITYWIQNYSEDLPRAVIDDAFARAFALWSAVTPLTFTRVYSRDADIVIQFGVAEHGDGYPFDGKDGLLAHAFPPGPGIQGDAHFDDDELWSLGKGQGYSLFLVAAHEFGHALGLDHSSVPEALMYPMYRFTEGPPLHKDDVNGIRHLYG
As to the kind of experiment: ThermoFluor binding assay with proMMP9(20-445;ΔFnII). As to conditions: pH 7.0. The method in brief:
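proMMP9(20-445;ΔFnII) at 2.8 μM with 50 μM 1,8-ANS in 50 mM HEPES pH 7.0, 100 mM NaCl, 0.001% Tween-20, 2.5 mM MgCl2, 300 μM CaCl2; compounds serially diluted in DMSO. Heated 40–90 °C at 1 °C/min, fluorescence read at 500±25 nm. Tm fit by standard equations; binding fit using DSC/TF-derived thermodynamic parameters.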

Assay [2] has as its target T2, proMMP13(1-268) (SEQ ID NO:7) (Homo sapiens, UniProt P45452). As to the kind of experiment: ProMMP13/Plasmin P126 Activation Assay. In kind it is biochemical. The note with it: 8 nM proMMP13, 16 nM plasmin, 40 min 37° C. Also on record: 6xHis (C); made in house; host or cells: HEK293 (transient, secreted). As to the method:
On the day of assay, proMMP13(1-268) (SEQ ID NO:7) purified from HEK293 cells and plasmin were diluted to 160 nM and 320 nM, respectively, in assay buffer. The reaction volume was 50 μL. […] The plate was sealed and incubated for 40 min at 37° C. […] Plasmin was not reactive towards P-126 substrate under these conditions.

The target of assay [3] is T2, proMMP13(1-268) (SEQ ID NO:7). As to the kind of experiment: ThermoFluor binding assay with proMMP13(1-268). Also on record: 6xHis (C); made in house. As to conditions: pH 7.0. The method in brief: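 Thermal shift binding with 3.5 μM protein and 25 μM 1,8-ANS in 50 mM HEPES pH 7.0, 100 mM NaCl, 0.001% Tween-20, 2.5 mM MgCl2, 300 μM CaCl2. Samples were heated 40 to 90 °C at 1 °C/min, fluorescence read at 500 nm. Tm shifts across an 11-point DMSO dilution series were fitted with DSC-derived thermodynamic parameters.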
For orientation: DSF heats the sample and reads unfolding from a dye or from intrinsic fluorescence.

Each structure is given as a SMILES string.

As to `Cc1nc(C)c(-c2csc(Nc3cc(S(N)(=O)=O)ccc3OC(C)C)n2)s1` [Example 64, 3-(2′,4′-Dimethyl-[4,5′]bithiazolyl-2-ylamino)-4-isopropoxy-benzenesulfonamide.HBr], the Kd in assay [1] was determined as 100 nM; in assay [3], 140 nM. In assay [2], this compound showed an IC50 of 3300 nM.

By Kd is commonly meant the free concentration of one partner at which half of the binding sites on the other are occupied at equilibrium, for simple one-to-one binding. A word on the IC50: it is the concentration that gives 50% inhibition. The low end stands for inhibition by little substance, the high end for a need for much substance.

The record behind these values is patent publication US20120129842A1, “BISTHIAZOLE INHIBITORS OF PRO-MATRIX METALLOPROTEINASE ACTIVATION” (priority 2010, published 2012).
